Data published in EP4725957A1, “GROUP OF CYCLIC ALKALINE LIPOPEPTIDE COMPOUNDS, AND PREPARATION METHOD THEREFOR AND USE THEREOF” (Institute of Medicinal Biotechnology, Chinese Academy of …, priority 2023, dated 2024).
Values after ≈ are worked out from the molar mass of the structure shown. Bridge positions count the residues as written; N and C are the ends. Square brackets hold non-standard residues; d marks the D form. Peptide text beside a SMILES is read from it. * marks the point of attachment. Dab(CH2SO3H) = N[C@@H](CCNCS(=O)(=O)O)C(=O)O; Heptanoyl(6-Me) = CC(C)CCCCC(=O)*; dOrn = NCCC[C@@H](N)C(=O)O; Nonanoyl = CCCCCCCCC(=O)*; X1 = CC[C@H](C)CCCCC(=O)*; dDab = NCC[C@@H](N)C(=O)O; Heptanoyl = CCCCCCC(=O)*; Octanoyl = CCCCCCCC(=O)*; Orn = NCCC[C@H](N)C(=O)O; dDap = NC[C@@H](N)C(=O)O; Dab = NCC[C@H](N)C(=O)O; Dap = NC[C@H](N)C(=O)O

Legend:
Format in all cases: cell-based
[1] = test system: Acinetobacter baumannii ABA19-1; conditions: ABA19-1
Method in brief: (§1)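 Per CLSI, bacteria at a final (2-4) × 10^5 CFU/mL were exposed in Mueller-Hinton broth to two-fold compound series (final 64 down to 0.03 mg/L). MIC read after 16-20 h at 35-37°C in sealed plates.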

[2] = test system: Acinetobacter baumannii NCTC 13304 (OXA-27); conditions: NCTC 13304
Method in brief: as §1

[3] = test system: Escherichia coli ATCC BAA-2340 (KPC); conditions: ATCC BAA-2340
Method in brief: as §1

[4] = test system: Escherichia coli ATCC BAA-2523; conditions: ATCC BAA-2523
Method in brief: as §1

[5] = test system: Klebsiella pneumoniae ATCC BAA-1705 (KPC); conditions: ATCC BAA-1705
Method in brief: as §1

[6] = test system: Klebsiella pneumoniae KPN+19-15; conditions: KPN+19-15
Method in brief: as §1

[7] = test system: Pseudomonas aeruginosa ATCC 27853; conditions: ATCC 27853
Method in brief: as §1

[8] = test system: Pseudomonas aeruginosa PAE19-3; conditions: PAE19-3
Method in brief: as §1

[9] = Nephrotoxicity assay: in vitro cytotoxicity of HK-2 cells by CCK-8 assay; conditions: human, HK-2 cells (human renal), 72 h incubation with drug-containing medium
Method in brief: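 Compounds in sterile water, diluted to final 500, 250, 200, 100, 50, 25 and 12.5 µg/mL, were applied for 72 h to human HK-2 kidney cells. Absorbance at 450 nm after 3 h CCK-8 gave viability against untreated wells, and IC50 came from logarithmic regression; three replicates.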

Compound | MIC [1] [µg/mL] | MIC [2] [µg/mL] | MIC [3] [µg/mL] | MIC [4] [µg/mL] | MIC [5] [µg/mL] | MIC [6] [µg/mL] | MIC [7] [µg/mL] | MIC [8] [µg/mL] | IC50 at 72 h [9] [µg/mL]
CC(C)CCCCC(=O)N[C@@H](CCN)C(=O)N[C@H](C(=O)N[C@H](CO)C(=O)N[C@H]1CCNC(=O)[C@H]([C@@H](C)O)NC(=O)[C@H](CCN)NC(=O)[C@H](CCNCS(=O)(=O)O)NC(=O)[C@H]([C@@H](C)O)NC(=O)[C@@H](Cc2ccccc2)NC(=O)[C@H](CCN)NC1=O)[C@@H](C)O [Compound 110, 6-methylheptanoyl-Dab-Thr-D-Ser-ring(4-10)[Dab-Dab-D-Phe-Thr-Dab(CH2SO3H)-Dab-Thr]] ({Heptanoyl(6-Me)}-[Dab]T[dS][Dab][Dab][dF]T[Dab(CH2SO3H)][Dab]T; lactam 4-C) | 0.25 (≈ 0.199 µM) | 0.06 (≈ 0.0477 µM) | 0.06 (≈ 0.0477 µM) | 0.06 (≈ 0.0477 µM) | 0.125 (≈ 0.0993 µM) | 0.125 (≈ 0.0993 µM) | 0.25 (≈ 0.199 µM) | 0.5 (≈ 0.397 µM) | > 500
CCCCCCC(=O)N[C@@H](CCN)C(=O)N[C@H](C(=O)N[C@H](CO)C(=O)N[C@H]1CCNC(=O)[C@H]([C@@H](C)O)NC(=O)[C@H](CCN)NC(=O)[C@H](CCN)NC(=O)[C@H]([C@@H](C)O)NC(=O)[C@@H](Cc2ccccc2)NC(=O)[C@H](CN)NC1=O)[C@@H](C)O [Compound 64, Heptanoyl-Dab-Thr-D-Ser-ring(4-10)[Dab-Dap-D-Phe-Thr-Dab-Dab-Thr]] (Heptanoyl-[Dab]T[dS][Dab][Dap][dF]T[Dab][Dab]T; lactam 4-C) | 0.25 (≈ 0.22 µM) | 0.25 (≈ 0.22 µM) | 0.25 (≈ 0.22 µM) | 0.25 (≈ 0.22 µM) | 0.25 (≈ 0.22 µM) | 0.5 (≈ 0.44 µM) | 64 (≈ 56.3 µM) | 8 (≈ 7.04 µM) | > 500
CCCCCCCC(=O)N[C@@H](CN)C(=O)N[C@H](C(=O)N[C@H](CCN)C(=O)N[C@H]1CCNC(=O)[C@H]([C@@H](C)O)NC(=O)[C@H](CCN)NC(=O)[C@H](CCN)NC(=O)[C@H](CC(C)C)NC(=O)[C@@H](CC(C)C)NC(=O)[C@H](CCN)NC1=O)[C@@H](C)O [Compound 98, Octanoyl-Dap-Thr-D-Dab-ring(4-10)[Dab-Dab-D-Leu-Leu-Dab-Dab-Thr]] (Octanoyl-[Dap]T[dDab][Dab][Dab][dL]L[Dab][Dab]T; lactam 4-C) | 0.03 (≈ 0.0263 µM) | 0.03 (≈ 0.0263 µM) | 0.03 (≈ 0.0263 µM) | 0.03 (≈ 0.0263 µM) | 0.03 (≈ 0.0263 µM) | 0.03 (≈ 0.0263 µM) | 0.5 (≈ 0.438 µM) | 0.5 (≈ 0.438 µM) | 238 ± 9.9 (≈ 209 µM)
CCCCCCCC(=O)N[C@@H](CCN)C(=O)N[C@H](C(=O)N[C@@H](CCCN)C(=O)N[C@H]1CCNC(=O)[C@H]([C@@H](C)O)NC(=O)[C@H](CCN)NC(=O)[C@H](CCN)NC(=O)[C@H]([C@@H](C)O)NC(=O)[C@@H](Cc2ccccc2)NC(=O)[C@H](CCN)NC1=O)[C@@H](C)O [Compound 28, Octanoyl-Dab-Thr-Orn-ring(4-10)[Dab-Dab-D-Phe-Thr-Dab-Dab-Thr]] (Octanoyl-[Dab]T[Orn][Dab][Dab][dF]T[Dab][Dab]T; lactam 4-C) | 0.125 (≈ 0.105 µM) | 0.06 (≈ 0.0504 µM) | ≤0.03 | ≤0.03 | ≤0.03 | ≤0.03 | ≤0.03 | 0.25 (≈ 0.21 µM) | > 500
CCCCCCCC(=O)N[C@@H](CCN)C(=O)N[C@H](C(=O)N[C@H](CN)C(=O)N[C@H]1CCNC(=O)[C@H]([C@@H](C)O)NC(=O)[C@H](CCN)NC(=O)[C@H](CCN)NC(=O)[C@H]([C@@H](C)O)NC(=O)[C@@H](Cc2ccccc2)NC(=O)[C@H](CCN)NC1=O)[C@@H](C)O [Compound 3, Octanoyl-Dab-Thr-D-Dap-ring(4-10)[Dab-Dab-D-Phe-Thr-Dab-Dab-Thr]] (Octanoyl-[Dab]T[dDap][Dab][Dab][dF]T[Dab][Dab]T; lactam 4-C) | ≤0.03 | ≤0.03 | ≤0.03 | ≤0.03 | ≤0.03 | ≤0.03 | 0.03 (≈ 0.0258 µM) | 0.25 (≈ 0.215 µM) | > 500
CC[C@H](C)CCCCC(=O)N[C@@H](CCN)C(=O)N[C@H](C(=O)N[C@H](CO)C(=O)N[C@H]1CCNC(=O)[C@H]([C@@H](C)O)NC(=O)[C@H](CN)NC(=O)[C@H](CCN)NC(=O)[C@H]([C@@H](C)O)NC(=O)[C@@H](Cc2ccccc2)NC(=O)[C@H](CCN)NC1=O)[C@@H](C)O [Compound 81, (S)-6-methyloctanoyl-Dab-Thr-D-Ser-ring(4-10)[Dab-Dab-D-Phe-Thr-Dab-Dap-Thr]] (X1-[Dab]T[dS][Dab][Dab][dF]T[Dab][Dap]T; lactam 4-C) | 0.06 (≈ 0.0515 µM) | ≤0.03 | 0.03 (≈ 0.0258 µM) | 0.03 (≈ 0.0258 µM) | 0.25 (≈ 0.215 µM) | 0.5 (≈ 0.429 µM) | >64 | 64 (≈ 55 µM) | > 500
CCCCCCCCC(=O)N[C@@H](CCN)C(=O)N[C@H](C(=O)N[C@@H](CCCN)C(=O)N[C@H]1CCNC(=O)[C@H]([C@@H](C)O)NC(=O)[C@H](CCN)NC(=O)[C@H](CCN)NC(=O)[C@H]([C@@H](C)O)NC(=O)[C@@H](Cc2ccccc2)NC(=O)[C@H](CCN)NC1=O)[C@@H](C)O [Compound 30, Nonanoyl-Dab-Thr-Orn-ring(4-10)[Dab-Dab-D-Phe-Thr-Dab-Dab-Thr]] (Nonanoyl-[Dab]T[Orn][Dab][Dab][dF]T[Dab][Dab]T; lactam 4-C) | 0.125 (≈ 0.104 µM) | 0.06 (≈ 0.0498 µM) | 0.03 (≈ 0.0249 µM) | 0.03 (≈ 0.0249 µM) | 0.03 (≈ 0.0249 µM) | 0.03 (≈ 0.0249 µM) | 0.03 (≈ 0.0249 µM) | 0.5 (≈ 0.415 µM) | 270 ± 13.1 (≈ 224 µM)
CCCCCCC(=O)N[C@@H](CCN)C(=O)N[C@H](C(=O)N[C@H](CO)C(=O)N[C@H]1CCNC(=O)[C@H]([C@@H](C)O)NC(=O)[C@H](CN)NC(=O)[C@H](CCN)NC(=O)[C@H]([C@@H](C)O)NC(=O)[C@@H](Cc2ccccc2)NC(=O)[C@H](CCN)NC1=O)[C@@H](C)O [Compound 84, Heptanoyl-Dab-Thr-D-Ser-ring(4-10)[Dab-Dab-D-Phe-Thr-Dab-Dap-Thr]] (Heptanoyl-[Dab]T[dS][Dab][Dab][dF]T[Dab][Dap]T; lactam 4-C) | 0.06 (≈ 0.0528 µM) | 0.03 (≈ 0.0264 µM) | 0.25 (≈ 0.22 µM) | 0.25 (≈ 0.22 µM) | 0.25 (≈ 0.22 µM) | 0.5 (≈ 0.44 µM) | >64 | 64 (≈ 56.3 µM) | > 500
CC(C)CCCCC(=O)N[C@@H](CN)C(=O)N[C@H](C(=O)N[C@H](CCN)C(=O)N[C@H]1CCNC(=O)[C@H]([C@@H](C)O)NC(=O)[C@H](CCN)NC(=O)[C@H](CCN)NC(=O)[C@H](CC(C)C)NC(=O)[C@@H](CC(C)C)NC(=O)[C@H](CCN)NC1=O)[C@@H](C)O [Compound 97, 6-methylheptanoyl-Dap-Thr-D-Dab-ring(4-10)[Dab-Dab-D-Leu-Leu-Dab-Dab-Thr]] ({Heptanoyl(6-Me)}-[Dap]T[dDab][Dab][Dab][dL]L[Dab][Dab]T; lactam 4-C) | 0.03 (≈ 0.0263 µM) | 0.03 (≈ 0.0263 µM) | 0.03 (≈ 0.0263 µM) | 0.03 (≈ 0.0263 µM) | 0.03 (≈ 0.0263 µM) | 0.03 (≈ 0.0263 µM) | 0.5 (≈ 0.438 µM) | 0.5 (≈ 0.438 µM) | 217 ± 11.2 (≈ 190 µM)
CC[C@H](C)CCCCC(=O)N[C@@H](CCN)C(=O)N[C@H](C(=O)N[C@H](CCCN)C(=O)N[C@H]1CCNC(=O)[C@H]([C@@H](C)O)NC(=O)[C@H](CCN)NC(=O)[C@H](CCN)NC(=O)[C@H](CC(C)C)NC(=O)[C@@H](Cc2ccccc2)NC(=O)[C@H](CCN)NC1=O)[C@@H](C)O [Compound 41, (S)-6-methyloctanoyl-Dab-Thr-D-Orn-ring(4-10)[Dab-Dab-D-Phe-Leu-Dab-Dab-Thr]] (X1-[Dab]T[dOrn][Dab][Dab][dF]L[Dab][Dab]T; lactam 4-C) | 0.125 (≈ 0.103 µM) | 0.06 (≈ 0.0493 µM) | 0.03 (≈ 0.0246 µM) | 0.03 (≈ 0.0246 µM) | 0.06 (≈ 0.0493 µM) | 0.125 (≈ 0.103 µM) | 0.25 (≈ 0.205 µM) | 1 (≈ 0.821 µM) | 259 ± 7.8 (≈ 212 µM)
CCCCCCCCC(=O)N[C@@H](CCN)C(=O)N[C@H](C(=O)N[C@H](CN)C(=O)N[C@H]1CCNC(=O)[C@H]([C@@H](C)O)NC(=O)[C@H](CCN)NC(=O)[C@H](CCN)NC(=O)[C@H]([C@@H](C)O)NC(=O)[C@@H](Cc2ccccc2)NC(=O)[C@H](CCN)NC1=O)[C@@H](C)O [Compound 5, Nonanoyl-Dab-Thr-D-Dap-ring(4-10)[Dab-Dab-D-Phe-Thr-Dab-Dab-Thr]] (Nonanoyl-[Dab]T[dDap][Dab][Dab][dF]T[Dab][Dab]T; lactam 4-C) | 0.06 (≈ 0.051 µM) | 0.06 (≈ 0.051 µM) | 0.06 (≈ 0.051 µM) | 0.06 (≈ 0.051 µM) | 0.06 (≈ 0.051 µM) | 0.06 (≈ 0.051 µM) | 0.06 (≈ 0.051 µM) | 0.5 (≈ 0.425 µM) | 380 ± 30.5 (≈ 323 µM)
